Assay results as given in US6914065B2, “Imidazo[1,2-C]pyrimidine derivatives as ligands for gaba receptors” (Merck Sharp & Dohme Ltd., priority 2000, dated 2005).

With `Cc1cc2ncc(-c3cccc(-c4ccccc4C#N)c3)n2cn1` [Example 1, 3′-(7-Methylimidazo[1,2-c]pyrimidin-3-yl)biphenyl-2-carbonitrile] the melting point was 119 °C.
